Values belong to the compound of their own block, whether it stands above or below them.
What was measured:
integrin α5β1 = integrin α5β1 (Homo sapiens, UniProt P05556+P08648); experiment: Solid phase ELISA of integrin α5β1 binding; conditions: peptides 35 μM; EDTA 5 mM
Description: In a second approach, a solid phase binding assay was used in which CTGF1-4 or FN were individually coated onto microtiter wells that were subsequently incubated with purified integrin α5β1. The presence of immobilized integrin α5β1 was detected by ELISA using an anti-integrin α5β1 antibody similar to the methods described in Example 3 above. In addition, CTGF1-4 bound to integrin α5β1 in a dose-dependent manner, with maximal binding at 2 μg/ml CTGF. This level of CTGF1-4 (2 μg/ml) binding was the same as that elicited by 2 μg/ml FN, a well known ligand of integrin α5β1. In a similar experiment, 2 μg/ml of CTGF1-4;CTGF3-4 or CTGF4 were individually precoated onto microtiter wells. Using the solid-phase assay, integrin α5β1 bound to CTGF1-4, CTGF3-4 or CTGF4 See FIG. 5 (Panel B).
To directly analyze whether α5β1 integrin binds to CTGF4, microtiter wells coated with CTGF4 (2 μg/ml) or FN (4 μg/ml) were used in an ELISA assay to detect integrin binding, as described in Example 3. For these assays, 1 μg/ml integrin α5β1, alone or in the presence of 35 μM of P2peptide (CTGF[257-272]) and 35 μM of P5 peptide (CTGF [285-291]), were added to the precoated plates. […] The binding between CTGF4 and integrin α5 β1 was blocked by peptide P5 (CTGF [285-291]) or peptide P2 (CTGF[257-272]). […]

[1] = tested on: hepatic stellate cells (HSC); experiment: HSC adhesion assay on coated wells (CyQUANT fluorescence); type: cell-based, rat; conditions: for inhibition of CTGF1-4-mediated HSC adhesion: wells coated 2 μg/ml CTGF1-4; for inhibition of CTGF1-4-mediated HSC adhesion / inhibition of CTGF3-4-mediated HSC adhesion / inhibition of CTGF4-mediated HSC adhesion: EDTA 10 mM, GRGDsp 1 mM, Echistatin 2 μM; for inhibition of CTGF3-4-mediated HSC adhesion: wells coated 2 μg/ml CTGF3-4; for inhibition of CTGF4-mediated HSC adhesion: wells coated 2 μg/ml CTGF4, antibody/IgG 25 μg/ml; for inhibition of CTGF4-mediated HSC adhesion / inhibition of HSC adherence to CTGF[257-272]: heparin 2 μg/ml; for inhibition of HSC adherence to CTGF[257-272]: peptide-coated wells
Description: CTGF4 is known to be expressed in hepatic stellate cells (HSC) and to induce proliferation and extracellular matrix (ECM) production in these cells. (Williams et al., J Hepatol 32, 754-761, 2000; Paradis et al., Lab Invest 82, 767-774, 2002). The following experiments were carried out to determine if HSCs adhere to CTGF. HSCs were isolated from normal Sprague-Dowley rate by sequential perfusion with pronase/collagenase and purified by density gradient separation as described in Vyas et al. (Gastroenterology 109: 889-898, 1995).
The cells were subsequently detached using 1 mM EDTA PBS (137 mM NaCl, 2.7 mM KCl, 4.3 mM Na2HPO4, 1.4 mM KH2PO4, pH 7.3), washed twice in DMEM and resuspended in serum free medium containing 0.5% BSA. The cells-were plated (1.25×10^4 cells/well) in a 96 well plate coated with one of the following: 2 μg/ml CTGF isoform (CTGF1-4, CTGF3-4, CTGF4), 1 μg/ml laminin, or 4 μg/ml vitronectin and incubated for 20 minutes at 37° C. Subsequently the cells were washed with PBS and the adherent cells were fixed with 10% formalin and stained with CyQUANT GR dye/cell lysis buffer (Molecular Probes , Eugene, Oreg.) according to the manufacturer's instructions. The number of cells that adhered to CTGF isoforms or ECM protein was quantified by measuring the sample fluorescence intensity at Ex/Em: 480/520 nm using a micro-plate reader (CytoFluor™ 2350).
To determine if the CTGF-mediated HSC adhesion was carried out through integrin receptors, the experiment described above were carried out in the presence and absence of 10 mM EDTA. […] It is widely believed that Mn^2+ induces conformational shifts that mimic the physiological activation of β1 and β3 integrins (Roberts et al., J Biol Chem 278: 1975-1985, 2003, van der Pauw et al., J Periodontal Res 37: 317-323, 2002) as Mn^2+-induced activation leads to enhanced ligand-binding affinity and cell adhesion (Mould et al., J Biol Chem 277: 19800-19805, 2002, Loftus & Liddington J Clin Invest 100: S77-81, 1997, Lin et al., J Biol Chem 272: 14236-14243, […]).
Synthetic peptides GRGDsp (1 mM), GRGEsp (1 mM), Echistatin (2 μM) or vehicle buffer alone were added to the, HSC culture medium 30 minutes prior to plating.
In addition, adhesion assays as described in Example 1 were carried out in CTGF4 coated plates in the presence and absence of monoclonal antibody specific for αvβ3 (LM609).

[2] = tested on: vascular endothelial cells, intestinal epithelial, and hepatic stellate cells; experiment: Adhesion of cell types to 10 kDa CTGF; type: cell-based
Description: To confirm the functionality of residues 247-349 of SEQ ID NO: 1 (containing module 4 alone; denoted as CTGF4), this region of CTGF was produced as a maltose binding protein (MBP) fusion protein in E. coli as described in Ball et al., J Endocrinol; 176: R1-R7, 2003. […] HPLC-purified 10 kDa CTGF promoted 3T3 cell adhesion in a dose-dependent manner, with maximal binding at 8 ng/well. […] Also, the binding of all cell types to 10 kDa CTGF was reduced by EDTA treatment, though this effect was relatively modest in 3T3 cells. Thus, E coli-derived CTGF isoforms comprising essentially module 4 are intrinsically functional in the absence of the other constituent modules of CTGF.

[3] = tested on: pancreatic stellate cells (PSC); experiment: PSC adhesion assay on coated wells; type: cell-based, rat; conditions: for inhibition of PSC adhesion to CTGF4: 2 μg/ml CTGF4 coat, peptides 35 μM; for inhibition of PSC adhesion to CTGF4 / inhibition of PSC adhesion to CTGF1-4: antibodies 25 μg/ml, heparin 2 μg/ml
From the text: Rat PSCs were isolated by a modification of the method described by Phillips et al., Gut; 52:677-82, 2003. Briefly, pancreatic tissue was digested in situ with 0.03% collagenase P (Roche, Indianapolis, Ind.) in HBSS by perfusion through the thoracic aorta. This protocol was approved by the Institutional Animal Care and Use Committee of Children's Research Institute, Columbus, Ohio. The tissue was pooled, minced with scissors, and then digested with 0.05% collagenase P, 0.02% protease XIV (Sigma, St. Louis), and DNase I (Roche, Indianapolis, Ind.) in HBSS. The resulting cell suspension was centrifuged in a 12% Optiprep gradient at 1400 g for 14 minutes. Stellate cells separated into a hazy band just above the interface of a the gradient and the aqueous buffer. This band was harvested, and the cells washed and resuspended in DMEM supplemented with 25 mM Hepes buffer, 10% FBS, and 100 U/ml penicillin in, 100 μg/ml streptomycin. The, cells were maintained at 37° C. in a humidified atmosphere of 5% CO2/95% air.
The ability of activated PSC to adhere to non-tissue culture plastic microtiter wells coated with recombinant CTGF1-4, CTGF3-4 or CTGF4 was investigated. The solid phase binding assay was carried out as described in Example 2. […] To assess the possibility that CTGF-mediated PSC adhesion involved cell surface integrins, the effect of divalent cations on cell adhesion was examined, as described in Example 2. […]
Because CTGF is a heparin-binding protein, this property was further investigated.
To identify the peptides that bind to PSCs, cell adhesion assays were carried out as described in Example 3.
To further investigate the peptide binding, P2 or P5 (10 μM) or vehicle buffer alone (no add) were added to PSC cell suspensions for 30 minutes at room temperature.

integrin αvβ3 = integrin αvβ3 (Homo sapiens, UniProt P05106+P06756); experiment: Integrin αvβ3-CTGF immunoprecipitation / immunoblot; type: binding; conditions: 20 μM Echistatin
Description: To further characterize the interaction between CTGF4 and integrin αvβ3, each CTGF isoforms (CTGF1-4, CTGF3-4, CTGF4) was individually mixed with αvβ3, followed by immunoprecipitation with rabbit anti-CTGF polyclonal antibody and immunoblotting with anti-αvβ3. Human integrin αvβ3 (2 μg) and each individual CTGF isoform (4 μg) were incubated in 1 ml NP40 buffer with rocking at 4° C. for 2 hours. As a control, 20 μM Echistatin was added prior to adding the CTGF isoforms. Subsequently, polyclonal rabbit anti-CTGF antibody (1:100) or mouse IgG was added to the complex and the mixtures were further incubated at 4° C. for 16 hours. After incubation, 25 ,μl of Protein A was added to each mixture for 1 hour. The samples were separated on 8% SDS-polyacrylamide gels, and transferred onto nitrocellulose. The membrane was then incubated with anti-human αvβ3 monoclonal antibody (1:1000) diluted in TBS/Tween 20 (0.05%) containing 5% non-fat milk. Integrin αvβ3 bound similarly to all CTGF isoforms.

β3 integrin = molecular target: T1, β3 integrin (Homo sapiens, UniProt P05106); conditions: Gould et al. 1990; cited from earlier work
T1 sequence (P05106 27-788): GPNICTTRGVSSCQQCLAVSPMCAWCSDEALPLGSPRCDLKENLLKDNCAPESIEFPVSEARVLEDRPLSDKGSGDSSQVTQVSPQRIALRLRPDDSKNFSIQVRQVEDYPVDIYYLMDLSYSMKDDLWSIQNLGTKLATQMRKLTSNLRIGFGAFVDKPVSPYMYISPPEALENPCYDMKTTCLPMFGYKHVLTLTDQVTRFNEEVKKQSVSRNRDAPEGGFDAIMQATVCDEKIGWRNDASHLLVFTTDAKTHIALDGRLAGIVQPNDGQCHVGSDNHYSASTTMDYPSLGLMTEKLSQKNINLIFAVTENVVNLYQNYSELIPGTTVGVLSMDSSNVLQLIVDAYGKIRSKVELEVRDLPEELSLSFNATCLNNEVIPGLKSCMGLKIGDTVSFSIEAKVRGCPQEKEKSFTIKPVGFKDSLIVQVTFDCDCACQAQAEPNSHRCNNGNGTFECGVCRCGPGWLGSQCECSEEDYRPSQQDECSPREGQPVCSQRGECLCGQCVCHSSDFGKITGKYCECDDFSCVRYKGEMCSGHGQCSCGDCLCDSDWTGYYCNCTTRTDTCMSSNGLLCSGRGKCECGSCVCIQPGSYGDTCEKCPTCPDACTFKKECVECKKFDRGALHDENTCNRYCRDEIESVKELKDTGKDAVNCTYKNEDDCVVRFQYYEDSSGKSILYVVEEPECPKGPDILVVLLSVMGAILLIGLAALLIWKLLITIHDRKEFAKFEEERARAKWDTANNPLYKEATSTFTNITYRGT

PSCs [4] = experiment: PSC chemotaxis (migration) assay in culture insert; type: cell-based, rat
Description: To examine whether CTGF plays a role in PSC migration, a chemotaxis assay was carried out in which the migratory behavior of PSCs in the upper chamber of a culture insert was assessed following addition of CTGF to the lower chamber. […] PSC migration was also promoted by FN, PDGF or TGF-β1.

CTGF = CTGF production by PSCs (immunoprecipitation); type: cell-based, rat; conditions: TGF-β1 20 ng/ml; P<0.01
CTGF promoter = CTGF promoter luciferase reporter pCCN2-Luc in PSCs; type: cell-based, rat
Description: TGF-β1 is a well characterized transcriptional activator of CTGF in other cell types. To further examine the mechanism by which TGF-β1 and other fibrogenic stimulators could influence CTGF production in PSCs, CTGF promoter activity in PSCs was evaluated using the luciferase reporter, pCCN2-Luc, as described in Gao et al., (J Hepatol 2004;40:431-8).

PSCs [5] = experiment: PSC DNA synthesis, [3H]thymidine incorporation; type: cell-based, rat; conditions: 24 hours; CTGF1-4 effect in 0.1% serum, not in serum-free medium
Description: To measure the effect of CTGF on cell proliferation, DNA synthesis was measured by ^3H incorporation in PSCs. The cells were incubated for 24 hours with 0.2 μCi [^3H] thymidine in each well (24-well plate). The incorporation of [^3H] thymidine into PSC DNA was determined using a scintillation counter after the cells had been washed with PBS, fixed with 10% methanol, treated with cold 5% trichloroacetic acid, and lysed in 0.3 N NaOH.

Sequence of integrin αvβ3 (P06756 31-889 limits assumed, one chain of several): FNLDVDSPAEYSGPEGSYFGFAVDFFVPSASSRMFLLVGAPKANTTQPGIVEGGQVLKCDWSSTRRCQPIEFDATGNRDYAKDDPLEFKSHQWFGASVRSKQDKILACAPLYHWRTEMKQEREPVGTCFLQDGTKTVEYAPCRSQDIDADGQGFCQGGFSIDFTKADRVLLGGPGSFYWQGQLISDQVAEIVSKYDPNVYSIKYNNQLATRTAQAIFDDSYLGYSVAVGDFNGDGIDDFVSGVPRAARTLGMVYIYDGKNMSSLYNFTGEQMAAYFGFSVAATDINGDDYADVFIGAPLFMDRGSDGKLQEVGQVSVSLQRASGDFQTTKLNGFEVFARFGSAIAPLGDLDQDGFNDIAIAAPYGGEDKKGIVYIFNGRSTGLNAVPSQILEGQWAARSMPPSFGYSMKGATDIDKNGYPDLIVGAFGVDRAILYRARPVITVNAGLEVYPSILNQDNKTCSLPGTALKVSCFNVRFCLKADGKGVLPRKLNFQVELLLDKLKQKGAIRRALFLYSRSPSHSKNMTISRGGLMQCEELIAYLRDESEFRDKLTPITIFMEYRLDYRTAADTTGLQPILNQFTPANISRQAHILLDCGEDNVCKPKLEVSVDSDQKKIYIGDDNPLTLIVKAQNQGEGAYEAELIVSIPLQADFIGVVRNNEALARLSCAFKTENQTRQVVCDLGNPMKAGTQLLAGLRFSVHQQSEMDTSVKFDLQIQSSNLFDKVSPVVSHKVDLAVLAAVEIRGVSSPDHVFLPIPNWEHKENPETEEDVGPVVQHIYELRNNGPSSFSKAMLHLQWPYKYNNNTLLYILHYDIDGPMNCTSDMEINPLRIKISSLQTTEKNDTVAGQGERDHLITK
Sequence of integrin αvβ3 (P06756 891-1048 partner limits assumed, one chain of several): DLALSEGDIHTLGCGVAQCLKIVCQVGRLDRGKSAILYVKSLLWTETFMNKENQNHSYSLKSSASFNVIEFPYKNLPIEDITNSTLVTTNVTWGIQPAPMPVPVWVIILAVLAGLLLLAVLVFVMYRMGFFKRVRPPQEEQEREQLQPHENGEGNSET
Sequence of integrin α5β1 (P08648 42-894 limits assumed): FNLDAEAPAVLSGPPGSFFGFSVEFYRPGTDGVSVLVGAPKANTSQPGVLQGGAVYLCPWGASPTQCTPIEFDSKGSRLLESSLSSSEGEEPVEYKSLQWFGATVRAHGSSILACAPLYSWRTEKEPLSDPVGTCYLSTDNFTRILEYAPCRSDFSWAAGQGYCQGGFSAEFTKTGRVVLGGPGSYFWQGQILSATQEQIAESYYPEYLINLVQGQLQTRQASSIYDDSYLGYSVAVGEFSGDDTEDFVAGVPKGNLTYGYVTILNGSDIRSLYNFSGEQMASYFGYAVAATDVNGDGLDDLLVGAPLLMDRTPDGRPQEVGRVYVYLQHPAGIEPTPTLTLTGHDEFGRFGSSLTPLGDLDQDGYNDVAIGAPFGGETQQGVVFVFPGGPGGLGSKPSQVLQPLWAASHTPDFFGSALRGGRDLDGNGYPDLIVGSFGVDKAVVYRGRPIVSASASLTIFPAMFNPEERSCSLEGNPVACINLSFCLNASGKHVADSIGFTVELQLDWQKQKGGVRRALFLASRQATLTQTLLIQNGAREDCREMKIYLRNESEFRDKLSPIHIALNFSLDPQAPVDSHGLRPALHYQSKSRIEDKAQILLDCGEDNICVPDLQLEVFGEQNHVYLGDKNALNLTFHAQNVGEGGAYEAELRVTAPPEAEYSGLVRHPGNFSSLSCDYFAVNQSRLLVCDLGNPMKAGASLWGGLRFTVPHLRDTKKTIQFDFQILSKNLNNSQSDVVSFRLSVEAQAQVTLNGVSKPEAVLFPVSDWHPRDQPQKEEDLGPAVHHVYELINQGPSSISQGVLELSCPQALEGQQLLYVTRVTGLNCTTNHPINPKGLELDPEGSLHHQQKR
Sequence of integrin α5β1 (P08648 895-1049 partner limits assumed): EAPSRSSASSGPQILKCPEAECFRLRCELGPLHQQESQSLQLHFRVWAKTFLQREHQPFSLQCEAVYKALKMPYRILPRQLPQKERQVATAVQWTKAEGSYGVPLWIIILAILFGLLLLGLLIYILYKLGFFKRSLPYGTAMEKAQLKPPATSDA
Sequence of integrin α5β1 (P05556 21-798): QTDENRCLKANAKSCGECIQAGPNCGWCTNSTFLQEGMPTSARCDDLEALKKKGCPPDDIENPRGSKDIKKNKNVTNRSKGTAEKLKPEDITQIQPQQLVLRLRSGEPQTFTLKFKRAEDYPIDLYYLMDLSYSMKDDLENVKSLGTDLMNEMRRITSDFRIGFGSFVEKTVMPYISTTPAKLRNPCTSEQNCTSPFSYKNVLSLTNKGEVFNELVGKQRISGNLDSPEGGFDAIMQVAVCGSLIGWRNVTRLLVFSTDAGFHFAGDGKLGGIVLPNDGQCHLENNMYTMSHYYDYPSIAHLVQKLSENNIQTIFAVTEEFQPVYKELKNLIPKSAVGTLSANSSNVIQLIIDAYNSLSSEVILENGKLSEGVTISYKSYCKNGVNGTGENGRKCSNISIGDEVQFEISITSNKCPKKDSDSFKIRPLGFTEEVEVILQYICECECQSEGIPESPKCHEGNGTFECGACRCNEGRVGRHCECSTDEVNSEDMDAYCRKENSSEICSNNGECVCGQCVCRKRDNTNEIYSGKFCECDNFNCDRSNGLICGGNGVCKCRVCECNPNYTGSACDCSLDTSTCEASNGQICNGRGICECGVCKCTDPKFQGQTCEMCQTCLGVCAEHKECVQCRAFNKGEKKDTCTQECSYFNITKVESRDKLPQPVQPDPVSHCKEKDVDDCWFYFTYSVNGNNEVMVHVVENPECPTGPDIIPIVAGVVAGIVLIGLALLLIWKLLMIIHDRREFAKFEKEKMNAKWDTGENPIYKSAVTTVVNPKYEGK

inhibition of binding between CTGF4 and integrin α5β1 (integrin α5β1): blocked
Compound: O=C(O)CN(CCN(CC(=O)O)CC(=O)O)CC(=O)O [EDTA, reference compound]
inhibition of CTGF1-4-mediated HSC adhesion [1]: 50%
inhibition of CTGF3-4-mediated HSC adhesion [1]: 50%
inhibition of CTGF4-mediated HSC adhesion [1]: 90%
binding of all cell types to 10 kDa CTGF after EDTA treatment ([2]; effect relatively modest in 3T3 cells): reduced
inhibition of PSC adhesion to CTGF4 ([3]; EDTA 5 mM): significantly decreased
inhibition of PSC adhesion to CTGF3-4 ([3]; EDTA 5 mM): significantly decreased
inhibition of PSC adhesion to CTGF1-4 ([3]; EDTA 5 mM): significantly decreased

Compound: Echistatin (QCESGPCCRNCKFLKEGTICKRARGDDMDDYCNGKTCDCPRNPHKGPAT)
competition for the binding of αvβ3 with CTGF4 (integrin αvβ3): fully competed
effectiveness relative to short RGDX peptides (β3 integrin): at least 500 times
inhibition of HSC adherence to CTGF[257-272] [1]: 40%
inhibition of CTGF1-4-mediated HSC adhesion [1]: 58%
inhibition of CTGF3-4-mediated HSC adhesion [1]: 62%
inhibition of CTGF4-mediated HSC adhesion [1]: 69%

activity of pCCN2-Luc in PSC (CTGF promoter; P<0.01 compared with no stimulation): significantly increased
activation of pCCN2-Luc compared among four stimulators (CTGF promoter; P<0.05): strongest activation
Compound: TGF-β1: transcriptional activator of CTGF
PSC migration (PSCs [4]; substance in lower chamber): promoted
CTGF1-4, CTGF3-4 and CTGF4 levels in cell lysates and conditioned medium (CTGF): significantly increased
PSC proliferation (DNA synthesis) (PSCs [5]): did not induce proliferation

Compound: heparin
inhibition of HSC adherence to CTGF[257-272] [1]: abrogated
inhibition of CTGF4-mediated HSC adhesion [1]: completely abrogated
inhibition of vitronectin-mediated HSC adhesion ([1]; wells coated 4 μg/ml vitronectin): little effect
inhibition of binding of each cell type to 10 kDa CTGF ([2]; 5 μg/ml heparin, each cell type incl. 3T3): completely inhibited
inhibition of PSC migration in response to CTGF (PSCs [4]; CTGF1-4 or CTGF4): blocked
inhibition of PSC adhesion to CTGF4 ([3]; EDTA 5 mM): blocked
inhibition of PSC adhesion to CTGF1-4 ([3]; EDTA 5 mM): blocked
inhibition of FN-mediated PSC adhesion ([3]; fibronectin coat): little effect
